Values of other authors, collected in patent publication US7816398B2, “Fatty alcohol drug conjugates” (Luitpold Pharmaceuticals, Inc., priority 2001, dated 2010).

Settings: relative to irinotecan

Structure (SMILES): CCc1c2c(nc3ccc(O)cc13)-c1cc3c(c(=O)n1C2)COC(=O)[C@]3(O)CC [SN-38]
- times more potent than Irinotecan: ~100 times
